Results from PubChem BioAssay (NCI).
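Values below derive from 48-hour exposures of cells grown in 96-well plates, with endpoints linearly interpolated between the two concentrations bracketing the appropriate inhibition level. Abbreviation: GI50, concentration required for 50% inhibition of growth. TGI: total growth inhibition.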

Tests used:
Test in all cases: DTP human tumour cell line panel, 48 h
A498 renal = tested on: A498 renal
OVCAR-5 ovarian = tested on: OVCAR-5 ovarian
MDA-MB-435 = tested on: MDA-MB-435
SK-OV-3 ovarian = tested on: SK-OV-3 ovarian
PC-3 prostate = tested on: PC-3 prostate
HL-60(TB) leukemia = tested on: HL-60(TB) leukemia
HS 578T breast = tested on: HS 578T breast
SW-620 colon = tested on: SW-620 colon
HT29 colon = tested on: HT29 colon
U251 CNS = tested on: U251 CNS
SK-MEL-5 melanoma = tested on: SK-MEL-5 melanoma
CAKI-1 renal = tested on: CAKI-1 renal
HCC-2998 colon = tested on: HCC-2998 colon
OVCAR-8 ovarian = tested on: OVCAR-8 ovarian
OVCAR-4 ovarian = tested on: OVCAR-4 ovarian
786-0 renal = tested on: 786-0 renal
HOP-62 NSCLC = tested on: HOP-62 NSCLC
HCT-116 colon = tested on: HCT-116 colon
IGROV1 ovarian = tested on: IGROV1 ovarian
MCF7 breast = tested on: MCF7 breast
EKVX NSCLC = tested on: EKVX NSCLC
UACC-62 melanoma = tested on: UACC-62 melanoma
LOX IMVI melanoma = tested on: LOX IMVI melanoma
SF-295 CNS = tested on: SF-295 CNS
NCI-H23 lung = tested on: NCI-H23 lung
SK-MEL-28 melanoma = tested on: SK-MEL-28 melanoma
MDA-N = tested on: MDA-N
HCT-15 colon = tested on: HCT-15 colon
SNB-19 CNS = tested on: SNB-19 CNS
TK-10 renal = tested on: TK-10 renal
RXF 393 renal = tested on: RXF 393 renal
NCI-H522 lung = tested on: NCI-H522 lung
COLO 205 colon = tested on: COLO 205 colon
NCI/ADR-RES ovarian = tested on: NCI/ADR-RES ovarian
BT-549 breast = tested on: BT-549 breast
T-47D breast = tested on: T-47D breast
SNB-75 CNS = tested on: SNB-75 CNS
HOP-92 NSCLC = tested on: HOP-92 NSCLC
A549 NSCLC = tested on: A549 NSCLC
RPMI-8226 leukemia = tested on: RPMI-8226 leukemia
ACHN renal = tested on: ACHN renal
UACC-257 melanoma = tested on: UACC-257 melanoma
MALME-3M melanoma = tested on: MALME-3M melanoma
MDA-MB-231 breast = tested on: MDA-MB-231 breast
CCRF-CEM leukemia = tested on: CCRF-CEM leukemia
UO-31 renal = tested on: UO-31 renal
KM12 colon = tested on: KM12 colon
K-562 leukemia = tested on: K-562 leukemia
MOLT-4 leukemia = tested on: MOLT-4 leukemia
OVCAR-3 ovarian = tested on: OVCAR-3 ovarian
NCI-H460 lung = tested on: NCI-H460 lung
M14 melanoma = tested on: M14 melanoma
SF-268 CNS = tested on: SF-268 CNS
SK-MEL-2 melanoma = tested on: SK-MEL-2 melanoma
SN12C renal = tested on: SN12C renal
DU-145 prostate = tested on: DU-145 prostate
NCI-H226 lung = tested on: NCI-H226 lung
SR leukemia = tested on: SR leukemia
SF-539 CNS = tested on: SF-539 CNS

CC(=O)Nc1ccc(-c2c3nc(c(-c4cc5ccccc5[n+](C)c4)c4ccc([nH]4)c(-c4ccc(NC(C)=O)cc4)c4nc(c(-c5cc6ccccc6[n+](C)c5)c5ccc2[nH]5)C=C4)C=C3)cc1
GI50 (A498 renal): 5.16 µM
TGI (A498 renal): 36.2 µM
GI50 (OVCAR-5 ovarian): 8.54 µM
TGI (OVCAR-5 ovarian): > 50 µM
GI50 (MDA-MB-435): 7.19 µM
TGI (MDA-MB-435): 30.6 µM
GI50 (SK-OV-3 ovarian): 11.1 µM
TGI (SK-OV-3 ovarian): 35.6 µM
GI50 (PC-3 prostate): 15.1 µM
TGI (PC-3 prostate): > 50 µM
GI50 (HL-60(TB) leukemia): 10.1 µM
TGI (HL-60(TB) leukemia): 29.2 µM
GI50 (HS 578T breast): 22.9 µM
TGI (HS 578T breast): > 50 µM
GI50 (SW-620 colon): 23.6 µM
TGI (SW-620 colon): > 50 µM
GI50 (HT29 colon): 40.3 µM
TGI (HT29 colon): > 50 µM
GI50 (U251 CNS): 13.5 µM
TGI (U251 CNS): > 50 µM
GI50 (SK-MEL-5 melanoma): 21.8 µM
TGI (SK-MEL-5 melanoma): > 50 µM
GI50 (CAKI-1 renal): 4.81 µM
TGI (CAKI-1 renal): 29.7 µM
GI50 (HCC-2998 colon): > 50 µM
TGI (HCC-2998 colon): > 50 µM
GI50 (OVCAR-8 ovarian): 15.7 µM
TGI (OVCAR-8 ovarian): > 50 µM
GI50 (OVCAR-4 ovarian): 3.76 µM
TGI (OVCAR-4 ovarian): 30.3 µM
GI50 (786-0 renal): 9.97 µM
TGI (786-0 renal): 35.6 µM
GI50 (HOP-62 NSCLC): 7.3 µM
TGI (HOP-62 NSCLC): 19.5 µM
GI50 (HCT-116 colon): 22 µM
TGI (HCT-116 colon): > 50 µM
GI50 (IGROV1 ovarian): 13.7 µM
TGI (IGROV1 ovarian): > 50 µM
GI50 (MCF7 breast): 34.3 µM
TGI (MCF7 breast): > 50 µM
GI50 (EKVX NSCLC): 9.09 µM
TGI (EKVX NSCLC): 31.6 µM
GI50 (UACC-62 melanoma): 23.9 µM
TGI (UACC-62 melanoma): > 50 µM
GI50 (LOX IMVI melanoma): 12.5 µM
TGI (LOX IMVI melanoma): > 50 µM
GI50 (SF-295 CNS): 6.65 µM
TGI (SF-295 CNS): 22.5 µM
GI50 (NCI-H23 lung): 17.3 µM
TGI (NCI-H23 lung): > 50 µM
GI50 (SK-MEL-28 melanoma): 10.5 µM
TGI (SK-MEL-28 melanoma): 29.2 µM
GI50 (MDA-N): 11.2 µM
TGI (MDA-N): 36.7 µM
GI50 (HCT-15 colon): > 50 µM
TGI (HCT-15 colon): > 50 µM
GI50 (SNB-19 CNS): 10.9 µM
TGI (SNB-19 CNS): 49.1 µM
GI50 (TK-10 renal): 15.2 µM
TGI (TK-10 renal): 44.6 µM
GI50 (RXF 393 renal): 2.05 µM
TGI (RXF 393 renal): 14.5 µM
GI50 (NCI-H522 lung): 14.6 µM
TGI (NCI-H522 lung): > 50 µM
GI50 (COLO 205 colon): 12.9 µM
TGI (COLO 205 colon): 26.7 µM
GI50 (NCI/ADR-RES ovarian): 13.3 µM
TGI (NCI/ADR-RES ovarian): 45.7 µM
GI50 (BT-549 breast): 17 µM
TGI (BT-549 breast): > 50 µM
GI50 (T-47D breast): 8.6 µM
TGI (T-47D breast): 29.6 µM
GI50 (SNB-75 CNS): 2.17 µM
TGI (SNB-75 CNS): 11.7 µM
GI50 (HOP-92 NSCLC): 23.9 µM
TGI (HOP-92 NSCLC): > 50 µM
GI50 (A549 NSCLC): 8.6 µM
TGI (A549 NSCLC): 35.4 µM
GI50 (RPMI-8226 leukemia): 21.6 µM
TGI (RPMI-8226 leukemia): > 50 µM
GI50 (ACHN renal): 10.3 µM
TGI (ACHN renal): 26.6 µM
GI50 (UACC-257 melanoma): 11.7 µM
TGI (UACC-257 melanoma): 47.6 µM
GI50 (MALME-3M melanoma): 16.9 µM
TGI (MALME-3M melanoma): > 50 µM
GI50 (MDA-MB-231 breast): 8.1 µM
TGI (MDA-MB-231 breast): 29.7 µM
GI50 (CCRF-CEM leukemia): 0.721 µM
TGI (CCRF-CEM leukemia): > 50 µM
GI50 (UO-31 renal): 10.6 µM
TGI (UO-31 renal): 33.6 µM
GI50 (KM12 colon): 15.1 µM
TGI (KM12 colon): > 50 µM
GI50 (K-562 leukemia): 20.1 µM
TGI (K-562 leukemia): > 50 µM
GI50 (MOLT-4 leukemia): > 50 µM
TGI (MOLT-4 leukemia): > 50 µM
GI50 (OVCAR-3 ovarian): 2.37 µM
TGI (OVCAR-3 ovarian): 12.9 µM
GI50 (NCI-H460 lung): 13.8 µM
TGI (NCI-H460 lung): > 50 µM
GI50 (M14 melanoma): 28.6 µM
TGI (M14 melanoma): > 50 µM
GI50 (SF-268 CNS): 35 µM
TGI (SF-268 CNS): > 50 µM
GI50 (SK-MEL-2 melanoma): 15 µM
TGI (SK-MEL-2 melanoma): > 50 µM
GI50 (SN12C renal): 7.09 µM
TGI (SN12C renal): 23.2 µM
GI50 (DU-145 prostate): 5.93 µM
TGI (DU-145 prostate): 17.1 µM

C[C@]12CCC3c4ccc(O)cc4CC[C@H]3C1CC(=O)N(N)C2=O (stereo partly specified)
TGI (A498 renal): > 100 µM
TGI (OVCAR-5 ovarian): > 100 µM
TGI (MDA-MB-435): > 100 µM
TGI (SK-OV-3 ovarian): > 100 µM
TGI (PC-3 prostate): > 100 µM
TGI (HL-60(TB) leukemia): > 100 µM
TGI (HS 578T breast): > 100 µM
TGI (SW-620 colon): > 100 µM
TGI (HT29 colon): > 100 µM
TGI (U251 CNS): > 100 µM
TGI (SK-MEL-5 melanoma): > 100 µM
TGI (CAKI-1 renal): > 100 µM
TGI (HCC-2998 colon): > 100 µM
TGI (OVCAR-8 ovarian): > 100 µM
TGI (OVCAR-4 ovarian): > 100 µM
TGI (786-0 renal): > 100 µM
TGI (HOP-62 NSCLC): > 100 µM
TGI (HCT-116 colon): > 100 µM
TGI (IGROV1 ovarian): > 100 µM
TGI (MCF7 breast): > 100 µM
TGI (EKVX NSCLC): > 100 µM
TGI (NCI-H226 lung): > 100 µM
TGI (UACC-62 melanoma): > 100 µM
TGI (SF-295 CNS): > 100 µM
TGI (NCI-H23 lung): > 100 µM
TGI (SK-MEL-28 melanoma): > 100 µM
TGI (MDA-N): > 100 µM
TGI (SNB-19 CNS): > 100 µM
TGI (TK-10 renal): > 100 µM
TGI (RXF 393 renal): > 100 µM
TGI (NCI-H522 lung): > 100 µM
TGI (COLO 205 colon): > 100 µM
TGI (SR leukemia): > 100 µM
TGI (BT-549 breast): > 100 µM
TGI (T-47D breast): > 100 µM
TGI (SNB-75 CNS): > 100 µM
TGI (HOP-92 NSCLC): > 100 µM
TGI (A549 NSCLC): > 100 µM
TGI (ACHN renal): > 100 µM
TGI (UACC-257 melanoma): > 100 µM
TGI (MALME-3M melanoma): > 100 µM
TGI (MDA-MB-231 breast): > 100 µM
TGI (CCRF-CEM leukemia): > 100 µM
TGI (UO-31 renal): > 100 µM
TGI (SF-539 CNS): > 100 µM
TGI (KM12 colon): > 100 µM
TGI (K-562 leukemia): > 100 µM
TGI (MOLT-4 leukemia): > 100 µM
TGI (OVCAR-3 ovarian): > 100 µM
TGI (NCI-H460 lung): > 100 µM
TGI (M14 melanoma): > 100 µM
TGI (SF-268 CNS): > 100 µM
TGI (SN12C renal): > 100 µM
TGI (DU-145 prostate): > 100 µM
